US20090176817A1, “Method of Treatment of Diarrhea-Predominant Irritable Bowel Syndrome in a Subject” (priority 2005, published 2009)
Where two headings read alike, the source gives them in different places. Marks after values point to notes of the source that are not given here.

Legend:
[1] = clinical; conditions: both, human, in vivo
Method: Diurnal variations in cilansetron pharmacokinetics have been evaluated in a randomized, double-blind, placebo-controlled, 2-way crossover study in 9 male and 9 female healthy subjects, aged 21 to 39 years. Subjects were randomized to receive 2 treatments (cilansetron 16 mg tablet and placebo) during the 2 treatment periods. During each treatment period, subjects received a single dose of their assigned treatment on the first day (Day 1), after which they received the same treatment TID for 4 days (Days 2-5). There was a 10-day washout period between treatment periods. Subjects were fasted for at least 2 hours before and following each dose, and heavy physical activity was restricted. Serial blood samples for the measurement of multiple-dose pharmacokinetics of cilansetron were collected up to 24 hours postdose on Day 5.

[2] = system: CYP2A6, CYP2B6, CYP2C9, CYP2D6, and CYP2E1
Method: The CYP mRNA induction potentials of cilansetron and its two main metabolites, (4S)-hydroxy and (4R)-hydroxy cilansetron, were determined in human hepatocytes and compared to three model inducers, 3-methylcholantrene, phenobarbital, and rifampin.

[3] = system: diarrhea-predominant IBS subjects; test: Study S241.3.009: IBS-QOL; format: in vivo, human; parameters: IBS-QOL interference with activity, treatment difference / IBS-QOL food avoidance, treatment difference / IBS-QOL dysphoria, treatment difference / IBS-QOL body image, treatment difference / IBS-QOL health worry, treatment difference / IBS-QOL social reaction, treatment difference / IBS-QOL sexual, treatment difference / IBS-QOL relationships, treatment difference: scale not given here; conditions: for Percentage of Subjects Who Worsened from Baseline: IBS-QOL Overall Score: S241.3.009, 2 mg TID, observed value
Text: Studies S24 1.3.OO6, S24 1.3.0 1 1, and S24 1.3.009 used the following efficacy measurements: • The subjects answered the following three questions with “yes” or “no” using a phone diary at the end of each week: • a) During the last week, did you experience adequate relief of your IBS symptoms, such as abdominal pain, abdominal discomfort, abnormal bowel habits? • b) During the last week, did you experience adequate relief of your abdominal pain and/or discomfort? • c) During the last week, did you experience adequate relief of your abnormal bowel habits? • The subjects rated the following symptoms using the phone diary at the end of each day: • abdominal pain/discomfort (five-point scale); • stool consistency (seven-point Bristol Stool Scale); • stool frequency (number of bowel movements each day); • urgency (five-point scale); • straining (yes or no); • feeling of incomplete defecation (yes or no); • bloating or feeling of abdominal distension (five-point scale). • In Studies S241 A006 and S241.3.009, subjects completed the IBS-QOL Survey at Baseline (Day 1) and at the end of treatment. In Study S24 1.3.0 1 1, subjects completed the IBS-QOL Survey at Baseline (Day 1), at the end of the three-month treatment period, and at the end of rerandomized treatment.
Other secondary efficacy parameters for all three studies included: • Responder rate for the weekly diary questions on adequate relief at each month, where a responder for a month (monthly responder) was defined as a subject who answered the weekly question with “yes” at least twice for that month. The responder rate was the percentage of responders within a treatment group. The all-month responder rate for the weekly diary questions on adequate relief was also evaluated, where an all-month responder was defined as a subject who answered the weekly question with “yes” at least twice for each month. The all-month responder rate was the percentage of all-month responders within a treatment group; • Adequate relief rate for the weekly diary questions was calculated for each subject as the number of weekly assessments with adequate relief (“yes”) divided by the total number of weekly assessments; • Percentage of subjects with adequate relief for the weekly diary questions at each week; • Daily diary questions regarding abdominal pain/discomfort (five-point scale), stool consistency (seven-point scale), stool frequency (number of bowel movements each day), straining (yes or no), urgency (five-point scale), feeling of incomplete evacuation (yes or no), and bloating or feeling of abdominal distention (five-point scale); • QOL data assessed by the IBS-QOL questionnaire; and • Question to determine the interruption of activities.
The IBS-QOL is presented for the ITT population in FIG. 84 (change from Baseline). The IBS-QOL questionnaire was completed only in countries for which there was a validated translation available.

[4] = clinical; conditions: human, in vivo; for AUC: AUC (0-τ)
Method: Subjects were treated with a single oral dose of cilansetron 8 mg (tablet) on Day 1, followed by 8 mg TID for 5 days (Days 2-6) and a single 8 mg dose on the morning of Day 7. Young subjects ranged in age from 19-45 years, and elderly from 66-79 years. Serial blood samples were collected up to 24 hours postdose on Days 1 and 7, and cilansetron pharmacokinetic parameters were calculated. Doses on pharmacokinetic sampling days were administered under fasted conditions.
Young subjects ranged in age from 19-45 years, and elderly from 66-79 years. Serial blood samples were collected up to 24 hours postdose on Days 1 and 7, and cilansetron pharmacokinetic parameters were evaluated. Doses on pharmacokinetic sampling days were administered under fasted conditions.

[5] = both, human, in vivo
Method: The effect of renal impairment on the pharmacokinetics of cilansetron was evaluated in a study excluding subjects with end-stage renal disease, and utilizing a single-center, open-label, multiple-dose, parallel group study in 13 male and 9 female subjects, aged 33-74 years. […] Healthy subjects were matched to renally-impaired subjects with respect to age, weight, gender, and smoking status. All subjects received oral cilansetron 2 mg TID on Days 1 to 5, and a single dose on the morning of Day 6. Blood samples for measurement of plasma pharmacokinetics of cilansetron and its 4-hydroxy metabolites were collected up to 24 hours following dosing on Day 6, and log-transformed pharmacokinetic parameters for these analytes were statistically compared between study groups. Serum concentrations of unbound cilansetron and its 4-hydroxy metabolites were also measured prior to dosing and at 1 and 1.5 hours postdose on Day 6.

[6] = system: diarrhea-predominant IBS subjects; test: Study S241.3.006: safety; format: in vivo, human; conditions: for Constipation: human, in vivo, 12 weeks
Method: Safety was evaluated by physical examination, ECG, vital signs, clinical laboratory evaluations, concomitant medications, and AEs. An independent Gastrointestinal Events Review Board (GERB) was established to advise on gastrointestinal (GI) AEs during the course of the study and other safety events as considered necessary.

Cc1nccn1C[C@H]1CCc2c(c3cccc4c3n2CCC4)C1=O [Cilansetron, (R)-(−)-4,5,6,8,9,10-hexahydro-10-[(2-methyl-1H-imidazol-1-yl)methyl]-11H-pyrido-[3,2,1-jk]-carbazol-11-one]
Cmax ([1]; Cmax): 76.9 ng/mL
Tmax ([1]; Tmax): 1 h
Inductive effect on other CYP isozymes [2]: did not show an inductive effect
Subjects worsened from Baseline, IBS-QOL Overall Score ([3]; Month 6): 5%
Percentage of Subjects Who Worsened from Baseline: IBS-QOL Overall Score ([3]; Endpoint (last post-Baseline overall score)): 5%
Percentage of Subjects Who Worsened from Baseline: IBS-QOL Overall Score ([3]; Month 6): 5%
IBS-QOL body image, treatment difference ([3]; vs placebo): 5.04
IBS-QOL dysphoria, treatment difference ([3]; vs placebo): 8.78
IBS-QOL food avoidance, treatment difference ([3]; vs placebo): 10.09
IBS-QOL health worry, treatment difference ([3]; vs placebo): 5.41
IBS-QOL interference with activity, treatment difference ([3]; vs placebo): 10.85
IBS-QOL overall score, treatment difference in mean change from Baseline at Endpoint ([3]; vs placebo): 7.90
IBS-QOL relationships, treatment difference ([3]; vs placebo): 5.66
IBS-QOL sexual, treatment difference ([3]; vs placebo): 2.93
IBS-QOL social reaction, treatment difference ([3]; vs placebo): 8.70
AUC(0-inf) ([4]; female, 8 mg): 289 ng·h/mL
AUC ([4]; female, 8 mg): 247 ng·h/mL
AUC(0-inf) ([4]; female): 178 ng·h/mL
AUC ([4]; female): 263 ng·h/mL
Cmax ([4]; female): 95.1 ng/mL
Tmax ([4]; female): 0.88 h
AUC(0-inf) ([4]; male): 228 ng·h/mL
AUC ([4]; male): 196 ng·h/mL
Cmax ([4]; male): 58.8 ng/mL
Tmax ([4]; male): 1.31 h
Vd/F ([4]; male, Vz/F): 243 L
AUC(0-τ) ratio Mild/Healthy [5]: 71 (38, 132) %
AUC(0-τ) ratio Moderate/Healthy [5]: 49 (25, 95) %
AUC(0-τ) ratio Renal Combined/Healthy [5]: 76 (47, 124) %
AUC(0-τ) ratio Severe/Healthy [5]: 130 (66, 254) %
CL/F ratio Mild/Healthy [5]: 141 (76, 264) %
CL/F ratio Moderate/Healthy [5]: 206 (105, 403) %
CL/F ratio Renal Combined/Healthy [5]: 131 (81, 213) %
CL/F ratio Severe/Healthy [5]: 77 (39, 151) %
Cmax ratio Mild/Healthy [5]: 83 (50, 140) %
Cmax ratio Moderate/Healthy [5]: 55 (32, 96) %
Cmax ratio Renal Combined/Healthy [5]: 90 (60, 134) %
Cmax ratio Severe/Healthy [5]: 156 (89, 272) %
T½ ratio Mild/Healthy [5]: 85 (63, 114) %
T½ ratio Moderate/Healthy [5]: 65 (47, 89)* %
T½ ratio Renal Combined/Healthy [5]: 78 (62, 99) %
T½ ratio Severe/Healthy [5]: 87 (64, 120) %
Tmax ([5]; 2 mg): 1.13 h
Number of subjects who died ([6]; 2 mg TID, 352 randomized, S241.3.006): 0 n (%)
Constipation ([6]; female): 23%
Constipation ([6]; male): 8%
